The text below walks through data of paper doi:10.1101/2020.11.09.375162v1 (biorxiv, 2020).

Like-named read-outs stand apart in the source and are kept apart here.

Assay [1] concerns the target T1, human CB2 receptor (hCB2) (Homo sapiens, UniProt P34972). The following applies: beta-arrestin2 recruitment. On the technique in general: Recruitment of arrestin is a read-out of receptor activation apart from second messengers.
For assay [2], the target named is T1, human CB2 receptor (hCB2). The following applies: beta-arrestin1 recruitment.
The target in assay [3] is T1, human CB2 receptor (hCB2). The conditions noted are these: Gi2 activation.
Assay [4] deals with T1, human CB2 receptor (hCB2). The following applies: Gi3 activation.
For assay [5], the target named is T1, human CB2 receptor (hCB2). The conditions noted are these: GoA activation.
Assay [6] deals with T1, human CB2 receptor (hCB2). The following applies: GoB activation.
Assay [7] deals with T1, human CB2 receptor (hCB2). The conditions noted are these: Gi1 activation.
Assay [8] addresses T2, human CB1 receptor (hCB1) (Homo sapiens, UniProt P21554). Description: biochemical.
In assay [9] the target is T1, human CB2 receptor (hCB2). Description: cell-based. The following applies: read-out: cAMP Emax hCB2.
Assay [10] concerns the target T3, mouse CB2 receptor (mCB2) (Mus musculus, UniProt P47936). Nature of the assay: cell-based. The following applies: read-out: cAMP Emax mCB2.
Assay [11] addresses T2, human CB1 receptor (hCB1). Description: cell-based. The conditions noted are these: read-out: cAMP Emax hCB1.
In assay [12] the target is T3, mouse CB2 receptor (mCB2). Nature of the assay: cAMP assay, CHO cells. Format: cell-based.
For assay [13], the target named is T3, mouse CB2 receptor (mCB2). Description: biochemical.
The target in assay [14] is T2, human CB1 receptor (hCB1). Description: [3H]-CP55940 competition, membranes. In kind it is binding.
For assay [15], the target named is T2, human CB1 receptor (hCB1). Description: PathHunter beta-arrestin recruitment, CHO-K1. Format: cell-based.
Assay [16] has as its target T3, mouse CB2 receptor (mCB2). Description: cell-based.
The target in assay [17] is T1, human CB2 receptor (hCB2). Description: [3H]-CP55940 competition, membranes. Format: binding.
Assay [18] deals with T2, human CB1 receptor (hCB1). Description: cAMP assay, CHO cells. Format: cell-based. The following applies: agonist.
Assay [19] concerns the target T2, human CB1 receptor (hCB1). Description: [3H]-CP55940 competition, membranes. In kind it is binding. The source holds these as a separate data set.
The target in assay [20] is T3, mouse CB2 receptor (mCB2). Nature of the assay: [3H]-CP55940 competition, membranes. Format: binding.
Assay [21] addresses T3, mouse CB2 receptor (mCB2). Nature of the assay: cAMP assay, CHO cells. The following applies: agonist. In kind it is cell-based. (In general: Cyclic AMP is a second messenger, typically raised through Gs and lowered through Gi signalling.)
Assay [22] deals with T1, human CB2 receptor (hCB2). Description: PathHunter beta-arrestin recruitment, CHO-K1. In kind it is cell-based.
Assay [23] deals with T2, human CB1 receptor (hCB1). Description: cell-based.

T2 sequence (P21554 whole entry): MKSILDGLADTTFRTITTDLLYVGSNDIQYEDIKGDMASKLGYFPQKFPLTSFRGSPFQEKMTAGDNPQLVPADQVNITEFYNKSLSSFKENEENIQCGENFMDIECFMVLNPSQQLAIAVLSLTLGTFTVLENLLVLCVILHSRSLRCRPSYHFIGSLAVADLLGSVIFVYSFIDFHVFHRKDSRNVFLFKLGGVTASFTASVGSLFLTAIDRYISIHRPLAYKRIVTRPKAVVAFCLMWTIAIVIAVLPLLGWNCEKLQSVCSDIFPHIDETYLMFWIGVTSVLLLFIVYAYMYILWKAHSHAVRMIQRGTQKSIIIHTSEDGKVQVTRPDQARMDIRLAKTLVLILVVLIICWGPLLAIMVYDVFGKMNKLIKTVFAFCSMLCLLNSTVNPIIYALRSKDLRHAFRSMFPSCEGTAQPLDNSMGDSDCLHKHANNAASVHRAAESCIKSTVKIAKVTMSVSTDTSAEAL
T1 sequence (P34972 whole entry): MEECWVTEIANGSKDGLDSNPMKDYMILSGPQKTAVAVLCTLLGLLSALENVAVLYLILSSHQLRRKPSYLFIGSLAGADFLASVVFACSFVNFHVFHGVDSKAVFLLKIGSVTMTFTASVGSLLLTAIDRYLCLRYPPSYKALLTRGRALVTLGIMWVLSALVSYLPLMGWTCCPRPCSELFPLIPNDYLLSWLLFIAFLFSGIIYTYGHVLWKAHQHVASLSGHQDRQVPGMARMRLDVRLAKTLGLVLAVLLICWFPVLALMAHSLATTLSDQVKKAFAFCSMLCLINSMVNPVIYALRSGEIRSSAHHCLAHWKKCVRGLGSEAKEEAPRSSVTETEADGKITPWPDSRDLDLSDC
T3 sequence (P47936 whole entry): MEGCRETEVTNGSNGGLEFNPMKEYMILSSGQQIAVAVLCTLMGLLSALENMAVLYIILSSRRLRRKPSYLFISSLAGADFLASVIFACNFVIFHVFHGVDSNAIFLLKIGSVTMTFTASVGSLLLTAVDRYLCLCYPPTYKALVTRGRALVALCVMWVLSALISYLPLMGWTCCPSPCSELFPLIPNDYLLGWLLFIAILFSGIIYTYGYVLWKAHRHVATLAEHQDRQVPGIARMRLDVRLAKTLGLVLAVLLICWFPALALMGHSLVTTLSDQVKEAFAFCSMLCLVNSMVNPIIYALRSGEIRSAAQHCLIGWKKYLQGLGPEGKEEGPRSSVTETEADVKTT

As for `CCN1CCN(c2nc(C3CC3)nc3c2nnn3Cc2ccccc2Cl)CC1` [RO6435559], the “β-arrestin2 pEC50” value in assay [1] came out at 8.131 M. Further, in assay [2], the “β-arrestin1 pEC50” value came out at 8.518 M. The “Gi2 pEC50” value in assay [3] is 8.154 M. Besides, the “Gi3 pEC50” value in [4] is reported as 7.941 M. Besides, in [5], the “GoA pEC50” value worked out at 7.998 M. Besides, the “GoB pEC50” value in [6] is 7.794 M. The “Gi1 pEC50” value in [7] was 7.984 M.
For orientation: Ki means the equilibrium dissociation constant of an inhibitor or competing ligand from its target. High values mean a looser hold on the target, low ones a stronger hold on the target. Usually Emax stands for the maximal effect, on the per cent scale that the assay sets. As for `CCOC(=O)C(CC)(CC)NC(=O)c1ccc(N2CCCC2)c(OCC2CC2)n1` [RO6843766], in assay [8], the Ki is 617 nM. In addition, the Emax in assay [9] came out at 91%; in [10] it was 61%; in [11] it was 59%.
Regarding `CC(C)(C)c1nc(-c2cc(OCc3ccc(F)cc3)c(C3CC3)c(Cl)n2)no1` [RO6926274], the “cAMP pEC50” value in assay [12] is given as under 5.
Usually EC50 stands for the concentration needed to bring the measured effect to its halfway point. The low end stands for greater potency, the high end for weaker potency. `CC(C)(C)c1noc(-c2ccc(C3CC3)c(Cc3ccc(F)cc3)n2)n1` [RO6892033, 6-(3-tert-Butyl-1,2,4-oxadiazol-5-yl)-3-cyclopropyl-2-[(4-fluorophenyl)methyl]pyridine] had an EC50 in assay [12] of 4.07 nM. Further, the Emax worked out at 66% in assay [9], 45% in assay [10] and 70% in assay [11]. Moreover, the affinity in [13], expressed as Ki, was 7.59 nM.
In [14], `CCCCCCC(C)(C)c1cc(OC)c([C@@H]2C=C(CO)[C@@H]3C[C@H]2C3(C)C)c(OC)c1` [HU308] showed a Ki of over 10000 nM. Moreover, in [15], the EC50 is over 10000 nM.
By pKi is commonly meant the negative decadic logarithm of the Ki, by convention in mol/L. Read a high pKi as a small Ki. Compound `CCOC(=O)[C@H](CC(C)C)NC(=O)c1ccc(C2CC2)c(Cc2ccc(F)cc2)n1` [RO6853973] registered an EC50 in [16] of over 10000 nM. The results for the Emax in [9], in [10] and in assay [11] were 45%, 23% and 83%, respectively. In addition, the pKi was determined as 9.45 in assay [17] and 8.21 in assay [19]. The Ki in assay [13] is 0.676 nM. Moreover, the “cAMP pEC50” value in assay [18] turned out to be 8.12.
On to `CN1CCN(c2nc(C(C)(C)C)nc3c2nnn3Cc2ccccc2Cl)CC1` [RO6844395], for which the “pKi hCB1” value in [8] (binder) came to 5.76 M. The “cAMP pEC50 mCB2” value in assay [16] (cAMP, agonist) is 7.30 M. The Emax amounted to 99% in assay [9], 80% in assay [10] and 57% in assay [11]. Also, the pKi in [17] was 7.67; in [20], 6.87. In assay [3], the “Gi2 pEC50” value stood at 7.499 M. Also, in [4], the “Gi3 pEC50” value worked out at 7.994 M. Moreover, the “GoA pEC50” value in [5] was found to be 7.607 M. In [7], the “Gi1 pEC50” value was determined as 7.855 M.
As for `CCCCCCC(C)(C)c1ccc([C@@H]2C[C@H](O)CC[C@H]2CCCO)c(O)c1` [CP55940], the “cAMP pEC50” value in [21] was 10.17.
In [22], `CN1CCCCC1Cn1cc(C(=O)c2cc([N+](=O)[O-])ccc2I)c2ccccc21` (racemic) [(rac)-AM1241] displayed an EC50 of over 10000 nM.
In assay [8], `OCCSc1nc(N2CCC(F)(F)C2)c2nnn(Cc3ccccc3Cl)c2n1` [RO6878558] yielded a Ki of over 10000 nM. In addition, the figures for the Emax in assay [9], in assay [10] and in assay [11] were 87%, 92% and 20%, respectively. The same compound registered a negative logarithm of the Ki (pKi) in [17] of 6.94. The EC50 in assay [23] was over 10000 nM.
In the case of `O=S(=O)(Cc1ccccc1)c1nc(N2CCC(F)(F)C2)c2nnn(Cc3ccccc3Cl)c2n1` [RO6871487], the Ki in assay [8] was 4570 nM; in assay [13], 6.92 nM. Further, the EC50 in assay [16] and in [23] was over 10000 nM each time. Also, the Emax is 52% in assay [9], 24% in [10] and 9% in [11].
